The values that follow come from PubChem BioAssay AID248 (DTP/NCI, 2004).

The test concerns L1210 leukemia ip in BDF1 mice, survival T/C. Briefly: NCI In Vivo Anticancer Drug Screen. Data for tumor model L1210 Leukemia (intraperitoneal) in B6D2F1 (BDF1) mice. Particulars: endpoint: mean survival time, higher = longer survival. Summed up:
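Transplanted-tumor mice were given test agent; controls received vehicle only. Survival readings from the two groups were divided (treated over control).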

The mark [1] stands for this setting: dose: 100.0 mg/kg/injection, schedule: Q01DX001 (ip), vehicle: saline with Tween-80.
[2] abbreviates: dose: 200.0 mg/kg/injection, schedule: Q01DX001 (ip), vehicle: saline with Tween-80.
[3] abbreviates: dose: 400.0 mg/kg/injection, schedule: Q01DX001 (ip), vehicle: saline with Tween-80.
The mark [4] stands for this setting: dose: 100.0 mg/kg/injection, schedule: Q01DX009 (ip), vehicle: Klucel (hydroxypropylcellulose) (HPC).
[5] abbreviates: dose: 100.0 mg/kg/injection, schedule: Q04DX003 (ip), vehicle: Klucel (hydroxypropylcellulose) (HPC).
[6] abbreviates: dose: 200.0 mg/kg/injection, schedule: Q01DX009 (ip), vehicle: Klucel (hydroxypropylcellulose) (HPC).
Where [7] appears, read: dose: 200.0 mg/kg/injection, schedule: Q01DX009 (ip), vehicle: saline with Tween-80.
The mark [8] stands for this setting: dose: 400.0 mg/kg/injection, schedule: Q01DX009 (ip), vehicle: saline with Tween-80.
[9] abbreviates: dose: 100.0 mg/kg/injection, schedule: Q04DX003 (ip), vehicle: saline with Tween-80.
[10] abbreviates: dose: 200.0 mg/kg/injection, schedule: Q04DX003 (ip), vehicle: saline with Tween-80.
[11] abbreviates: dose: 400.0 mg/kg/injection, schedule: Q04DX003 (ip), vehicle: saline with Tween-80.

Values joined by “and” are separate entries in the source; they are usually repeats but may differ in a detail not shown here. Equal values may be shown once. Toxic doses and inconclusive results are not listed.

For `COC(C(=O)C(O)C(C)O)C1CC2C=C3C=C(OC4CC(OC5CC(O)C(OC)C(C)O5)C(OC(C)=O)C(C)O4)C(C)C(=O)C3=C(O)C2=C(O)C1OC1CC(OC2CC(OC3CC(C)(O)C(OC(=O)C(C)C)C(C)O3)C(O)C(C)O2)C(O)C(C)O1` (stereo not given), the T/C is, setting by setting: (dose: 0.25 mg/kg/injection, schedule: Q01DX001 (ip), vehicle: other) 121 % of control; (dose: 0.5 mg/kg/injection, schedule: Q01DX001 (ip), vehicle: other) 113 % of control; (dose: 1.0 micrograms/kg/injection, schedule: Q01DX009 (ip), vehicle: other) 111 % of control; (dose: 1.0 micrograms/kg/injection, schedule: Q01DX009 (ip), vehicle: saline) 111 % of control; (dose: 2.0 micrograms/kg/injection, schedule: Q01DX009 (ip), vehicle: other) 105 % of control; (dose: 2.0 micrograms/kg/injection, schedule: Q01DX009 (ip), vehicle: saline) 117 % of control. Moreover, the T/C (dose: 4.0 micrograms/kg/injection, schedule: Q01DX009 (ip), vehicle: other) is 109 % of control; the T/C (dose: 4.0 micrograms/kg/injection, schedule: Q01DX009 (ip), vehicle: saline) is 117 % of control; the T/C (dose: 5.0 micrograms/kg/injection, schedule: Q01DX001 (ip), vehicle: saline) is 114 % of control; the T/C (dose: 8.0 micrograms/kg/injection, schedule: Q01DX009 (ip), vehicle: other) is 121 % of control; the T/C (dose: 10.0 micrograms/kg/injection, schedule: Q01DX001 (ip), vehicle: saline) is 123 % of control; the T/C (dose: 16.0 micrograms/kg/injection, schedule: Q01DX009 (ip), vehicle: other) is 118 % of control. Further, the T/C runs as follows: (dose: 16.0 micrograms/kg/injection, schedule: Q01DX009 (ip), vehicle: saline) 117 % of control; (dose: 20.0 micrograms/kg/injection, schedule: Q01DX001 (ip), vehicle: saline) 114 % of control; (dose: 32.0 micrograms/kg/injection, schedule: Q01DX009 (ip), vehicle: saline) 112 % of control; (dose: 37.0 micrograms/kg/injection, schedule: Q01DX009 (ip), vehicle: other) 110 % of control; (dose: 40.0 micrograms/kg/injection, schedule: Q01DX001 (ip), vehicle: saline) 120 % of control; (dose: 62.5 micrograms/kg/injection, schedule: Q04DX003 (ip), vehicle: saline) 107 % of control. The T/C (dose: 80.0 micrograms/kg/injection, schedule: Q01DX001 (ip), vehicle: saline) is 103 % of control; the T/C (dose: 125.0 micrograms/kg/injection, schedule: Q01DX001 (ip), vehicle: saline) was 151 % of control and 331 % of control; the T/C (dose: 125.0 micrograms/kg/injection, schedule: Q04DX003 (ip), vehicle: saline) is 104 % of control; the T/C (dose: 125.0 micrograms/kg/injection, schedule: Q08DX002 (ip), vehicle: saline) is 163 % of control; the T/C (dose: 250.0 micrograms/kg/injection, schedule: Q01DX001 (ip), vehicle: saline) was 116 % of control and 198 % of control and 283 % of control.

As for `COc1ccc(C=Nc2ccnc3cc(OC)c(OC)cc23)cc1OC`, the T/C is 93 % of control under setting [1], 104 % of control under setting [2] and 102 % of control under setting [3].

As for `CC(O)(C(=O)O)c1ccccc1O` (stereo not given), the T/C was 98 % of control (dose: 75.0 mg/kg/injection, schedule: Q01DX001 (ip), vehicle: saline); 96 % of control (dose: 150.0 mg/kg/injection, schedule: Q01DX001 (ip), vehicle: saline); 93 % of control (dose: 300.0 mg/kg/injection, schedule: Q01DX001 (ip), vehicle: saline).

As to `NCCc1ccc(S(=O)(=O)O)cc1[N+](=O)[O-]`, the T/C was 96 % of control under setting [4]; 98 % of control under setting [5]; 89 % of control under setting [6]; 94 % of control (dose: 200.0 mg/kg/injection, schedule: Q04DX003 (ip), vehicle: Klucel (hydroxypropylcellulose) (HPC)); 98 % of control (dose: 400.0 mg/kg/injection, schedule: Q04DX003 (ip), vehicle: Klucel (hydroxypropylcellulose) (HPC)).

On to `O=C(O)CCN(CCC(=O)O)CCC(=O)O`, for which the T/C is 97 % of control (dose: 44.0 mg/kg/injection, schedule: Q01DX009 (ip), vehicle: alkali diluted with saline); 96 % of control (dose: 66.0 mg/kg/injection, schedule: Q01DX009 (ip), vehicle: saline); 98 % of control (dose: 67.0 mg/kg/injection, schedule: Q01DX009 (ip), vehicle: alkali diluted with saline); 101 % of control (dose: 100.0 mg/kg/injection, schedule: Q01DX009 (ip), vehicle: alkali diluted with saline); 94 % of control (dose: 100.0 mg/kg/injection, schedule: Q01DX009 (ip), vehicle: saline); 100 % of control (dose: 100.0 mg/kg/injection, schedule: Q04DX003 (ip), vehicle: alkali diluted with saline). Moreover, the T/C runs as follows: (dose: 150.0 mg/kg/injection, schedule: Q01DX009 (ip), vehicle: alkali diluted with saline) 103 % of control; (dose: 150.0 mg/kg/injection, schedule: Q01DX009 (ip), vehicle: saline) 102 % of control; under setting [7], 101 % of control; (dose: 200.0 mg/kg/injection, schedule: Q04DX003 (ip), vehicle: alkali diluted with saline) 108 % of control; under setting [8], 100 % of control; (dose: 400.0 mg/kg/injection, schedule: Q04DX003 (ip), vehicle: alkali diluted with saline) 97 % of control.

In the case of `CCOc1ccc(/C=C2\C=Nc3ccccc32)cc1`, the T/C under setting [4] was 91 % of control and the T/C under setting [6] was 99 % of control.

For the compound `N#CCC(c1ccccc1)C(C#N)c1ccccc1` (stereo not given), the T/C runs as follows: (dose: 75.0 mg/kg/injection, schedule: Q01DX001 (ip), vehicle: carboxymethylcellulose (CMC)) 97 % of control; (dose: 150.0 mg/kg/injection, schedule: Q01DX001 (ip), vehicle: carboxymethylcellulose (CMC)) 93 % of control.

Consider `CCCCCCCCCCCCCCCC(=O)N(CCCN)CCCCCCCCCN(CCCN)C(=O)CCCCCCCCCCCCCCC`, for which the T/C is 96 % of control (dose: 25.0 mg/kg/injection, schedule: Q01DX009 (ip), vehicle: saline); 97 % of control (dose: 50.0 mg/kg/injection, schedule: Q01DX009 (ip), vehicle: saline); 91 % of control (dose: 100.0 mg/kg/injection, schedule: Q04DX003 (ip), vehicle: saline).

`COc1cc2c(cc1C(C)C)CCC1C(C)(C#N)CCCC21C` (stereo not given): the T/C runs as follows: (dose: 100.0 mg/kg/injection, schedule: Q01DX009 (ip), vehicle: saline with Tween-80) 96 % of control; under setting [9], 100 % of control; under setting [7], 89 % of control; under setting [10], 96 % of control; under setting [8], 92 % of control; under setting [11], 100 % of control.

Take `Cc1ccc(S(=O)(=O)N/N=C/c2ccc(C)s2)cc1`: the T/C is 95 % of control under setting [9], 91 % of control under setting [10] and 87 % of control under setting [11].

Take `CCCCCCCCCCCCN(CCC(=O)O)S(=O)(=O)O`: the T/C (dose: 12.5 mg/kg/injection, schedule: Q04DX003 (ip), vehicle: Klucel (hydroxypropylcellulose) (HPC)) is 101 % of control; the T/C (dose: 25.0 mg/kg/injection, schedule: Q01DX009 (ip), vehicle: Klucel (hydroxypropylcellulose) (HPC)) was 94 % of control; the T/C (dose: 25.0 mg/kg/injection, schedule: Q04DX003 (ip), vehicle: Klucel (hydroxypropylcellulose) (HPC)) is 98 % of control; the T/C (dose: 50.0 mg/kg/injection, schedule: Q01DX009 (ip), vehicle: Klucel (hydroxypropylcellulose) (HPC)) was 96 % of control; the T/C (dose: 50.0 mg/kg/injection, schedule: Q04DX003 (ip), vehicle: Klucel (hydroxypropylcellulose) (HPC)) was 102 % of control; the T/C under setting [4] was 94 % of control. The T/C under setting [5] was 97 % of control.

Turning to `CS(=O)(=O)OC1CCC(OS(C)(=O)=O)CC1` (stereo not given), the T/C is, setting by setting: under setting [1], 103 % of control; under setting [2], 100 % of control; under setting [3], 100 % of control.

`NC(=S)c1cccc(S(N)(=O)=O)c1`: the T/C by setting is: (dose: 100.0 mg/kg/injection, schedule: Q01DX001 (ip), vehicle: Klucel (hydroxypropylcellulose) (HPC)) 100 % of control; (dose: 200.0 mg/kg/injection, schedule: Q01DX001 (ip), vehicle: Klucel (hydroxypropylcellulose) (HPC)) 103 % of control; (dose: 400.0 mg/kg/injection, schedule: Q01DX001 (ip), vehicle: Klucel (hydroxypropylcellulose) (HPC)) 103 % of control.
